Measurements as given in patent publication US12285012B2, “Compositions comprising pyridine carboxylate herbicides with acetolactate synthase (ALS) inhibitor herbicides” (Corteva Agriscience LLC, priority 2018, dated 2025).

Columns and labels:
[1] = system: kochia (KCHSC, Kochia scoparia); experiment: Greenhouse postemergence herbicidal effect; assay type: in vivo
Outline: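 Plants at the second or third true leaf stage received overhead spray at 187 L/ha, with the pyridine carboxylate (plus cloquintocet-mexyl safener) alone or with ALS herbicides in 1.25% v/v crop oil. Rates are in g ae/ha or g ai/ha. Visual injury versus solvent-blank controls was scored 0–100% after 20-22 d in the greenhouse.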

[2] = system: common lambsquarters (CHEAL, Chenopodium album L.); experiment: Greenhouse postemergence herbicidal effect; assay type: in vivo; settings: Pyroxsulam 15 g/ha
[3] = system: spring wheat (TRZAS); assay type: in vivo, Triticum aestivum
Outline: (§1)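 Plants grown in a greenhouse (~14 h photoperiod, about 23 °C day/22 °C night) were sprayed postemergence at the second or third true leaf stage. Formulations contained cloquintocet-mexyl safener; pyridine carboxylate rates are in g ae/ha, ALS inhibitor rates in g ai/ha. Injury versus solvent-blank controls was scored visually (0–100%) after 20–22 d.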

[4] = system: wild mustard (SINAR, Sinapis arvensis); experiment: Greenhouse postemergence herbicidal effect; assay type: in vivo
Outline: as §1

[5] = system: wild buckwheat (POLCO, Polygonum convolvulus); experiment: Greenhouse postemergence herbicidal effect; assay type: in vivo
Outline: as §1

[6] = system: field chamomile (ANTAR, Anthemis arvensis); experiment: Greenhouse postemergence herbicidal effect; assay type: in vivo; settings: Pyroxsulam 10 g/ha
Outline: as §1

[7] = system: chickweed (STEME, Stellaria media); experiment: Greenhouse postemergence herbicidal effect; assay type: in vivo; settings: Pyroxsulam 10 g/ha
Outline: as §1

[8] = system: wild chamomile (MATCH, Matricaria chamomilla); experiment: Greenhouse postemergence herbicidal effect; assay type: in vivo
Outline: as §1

[9] = system: pineapple weed (MATMT, Matricaria discoidea); experiment: Greenhouse postemergence herbicidal effect; assay type: in vivo; settings: Pyroxsulam 10 g/ha
Outline: as §1

[10] = system: purple deadnettle (LAMPU, Lamium purpureum); experiment: Greenhouse postemergence herbicidal effect; assay type: in vivo; settings: Pyroxsulam 10 g/ha
Outline: as §1

[11] = system: shepherd's purse (CAPBP, Capsella bursa-pastoris); experiment: Greenhouse postemergence herbicidal effect; assay type: in vivo; settings: Pyroxsulam 10 g/ha
Outline: as §1

[12] = system: ivyleaf speedwell (VERHE, Veronica hederifolia); experiment: Greenhouse postemergence herbicidal effect; assay type: in vivo; settings: Pyroxsulam 10 g/ha
Outline: as §1

[13] = system: R-PAPRH = Papaver rhoeas (corn poppy), herbicide-resistant; experiment: Greenhouse postemergence herbicidal effect; assay type: in vivo; settings: Pyroxsulam 10 g/ha
Outline: as §1

[14] = system: Russian thistle (SASKR, Salsola kali); experiment: Greenhouse postemergence herbicidal effect; assay type: in vivo; settings: Pyroxsulam 10 g/ha
Outline: as §1

[15] = system: pigweed (AMARE, Amaranthus retroflexus); experiment: Greenhouse postemergence herbicidal effect; assay type: in vivo; settings: Pyroxsulam 15 g/ha
Outline: as §1

[16] = system: winter rape (BRSNW, Brassica napus); experiment: Greenhouse postemergence herbicidal effect; assay type: in vivo
Outline: as §1

[17] = system: corn poppy (PAPRH, Papaver rhoeas); experiment: Greenhouse postemergence herbicidal effect; assay type: in vivo; settings: Pyroxsulam 10 g/ha
Outline: as §1

[18] = system: false chamomile (MATIN, Matricaria inodora); experiment: Greenhouse postemergence herbicidal effect; assay type: in vivo; settings: Pyroxsulam 10 g/ha
Outline: as §1

[19] = system: cleavers (GALAP, Galium aparine); experiment: Greenhouse postemergence herbicidal effect; assay type: in vivo; settings: Pyroxsulam 10 g/ha
Outline: as §1

[20] = system: cornflower (CENCY, Cyanus segetum); experiment: Greenhouse postemergence herbicidal effect; assay type: in vivo; settings: Pyroxsulam 10 g/ha
Outline: as §1

[21] = system: Canadian thistle (CIRAR, Cirsium arvense); experiment: Greenhouse postemergence herbicidal effect; assay type: in vivo
Outline: as §1

[22] = system: bird's-eye speedwell (VERPE, Veronica persica); experiment: Greenhouse postemergence herbicidal effect; assay type: in vivo; settings: Pyroxsulam 10 g/ha
Outline: as §1

[23] = system: wild pansy (VIOTR, Viola tricolor); experiment: Greenhouse postemergence herbicidal effect; assay type: in vivo; settings: Pyroxsulam 10 g/ha
Outline: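 Injury was rated visually after 20-22 d on a 0 (none) to 100% (complete kill) scale relative to solvent-sprayed controls, with sub-irrigation to avoid wash-off. Rates were given in g ae/ha or g ai/ha depending on component.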

[24] = system: field violet (VIOAR, Viola arvensis); experiment: Greenhouse postemergence herbicidal effect; assay type: in vivo; settings: Pyroxsulam 10 g/ha
Outline: as §1

[25] = system: winter barley (HORVW); experiment: Greenhouse postemergence crop phytotoxicity; assay type: in vivo, Hordeum vulgare; settings: Pyroxsulam 10 g/ha
Text: (§2) Seeds of the desired test plant species were planted in a 90:10% v/v (volume/volume) mixture of PRO-MIX® BX (Premier Tech Horticulture, Quakertown, PA, USA) and PROFILE® GREENS GRADE™ (Profile Products LLC, Buffalo Grove, IL, USA) planting mixture, which typically has a pH of 5.2 to 6.2 and an organic matter content of at least 50 percent, in plastic pots with a surface area of 103.2 square centimeters (cm^2). In some aspects, to ensure good germination and healthy plants, a fungicide treatment and/or other chemical or physical treatment was applied. The plants were grown for 7-36 days (d) in a greenhouse with an approximate 14-hour (h) photo-period which was maintained at about 23° C. during the day and 22° C. during the night. Nutrients and water were added on a regular basis and supplemental lighting was provided with overhead metal halide 1000-Watt lamps as necessary. The plants were employed for testing when they reached the second or third true leaf stage.
(§3) Emulsifiable concentrates of each of each pyridine carboxylate herbicide (Compound A or Compound B) were prepared at 100 grams acid equivalent per liter (g ae/L). The emulsifiable concentrates also included a safener, cloquintocet-mexyl, at 120 grams active ingredient per liter (g ai/L), unless otherwise noted below. An aliquot of each emulsifiable concentrate was placed in a 25 mL glass vial and diluted with an aqueous mixture of 1.25% (v/v) ACTIROB® B esterified rapeseed oil (Bayer Crop Science, Research Triangle Park, NC, USA) or MSO® Concentrate with LECI-TECH® methylated soybean oil (Loveland Products, Loveland, CO, USA) to obtain concentrated stock solutions at the highest application rate for each herbicide, based upon a 12 milliliter (mL) application volume at a rate of 187 liters per hectare (L/ha). The concentrated stock solutions were further diluted with an aqueous mixture of 1.25% v/v ACTIROB® B or MSO® Concentrate with LECI-TECH® to obtain stock solutions at reduced application rates for each herbicide. Spray solutions of the herbicide combinations (Compound A or Compound B plus ALS herbicide) were prepared by adding weighed amounts or aliquots of the ALS herbicides to the stock solutions of Compound A or Compound B to form 12-mL spray solutions in two- or three-way combinations. […]
(§4) The treated plants and control plants were placed in a greenhouse as described above and watered by sub-irrigation to prevent wash-off of the test compounds. After 20-22 d, the condition of the test plants as compared with that of the control plants was determined visually and scored on a scale of 0 to 100 percent where 0 corresponds to no injury and 100 corresponds to complete kill.

[26] = system: winter wheat (TRZAW); experiment: Greenhouse postemergence crop phytotoxicity; assay type: in vivo, Triticum aestivum; settings: Pyroxsulam 10 g/ha
Text: as §2, §3, §4

[27] = system: spring barley (HORVS); assay type: in vivo, Hordeum vulgare
Outline: as §1

[28] = system: broadleaf signalgrass (BRAPP, Brachiaria platyphylla); experiment: Greenhouse postemergence herbicidal effect; assay type: in vivo; settings: Penoxsulam 20 g/ha
Text: as §2
(§5) Emulsifiable concentrates of each of each pyridine carboxylate herbicide (Compound A or Compound B) were prepared at 100 grams acid equivalent per liter (g ae/L). The emulsifiable concentrates also included a safener, cloquintocet-mexyl, at 120 grams active ingredient per liter (g ai/L), unless otherwise noted below. An aliquot of each emulsifiable concentrate was placed in a 25 mL glass vial and diluted with an aqueous mixture of 1.25% (v/v) ACTIROB® B esterified rapeseed oil (Bayer Crop Science, Research Triangle Park, NC, USA) or MSO® Concentrate with LECI-TECH® methylated soybean oil (Loveland Products, Loveland, CO, USA) to obtain concentrated stock solutions at the highest application rate for each herbicide, based upon a 12 milliliter (mL) application volume at a rate of 187 liters per hectare (L/ha). The concentrated stock solutions were further diluted with an aqueous mixture of 1.25% v/v ACTIROB® B or MSO® Concentrate with LECI-TECH® to obtain stock solutions at reduced application rates for each herbicide. Spray solutions of the herbicide combinations (Compound A or Compound B plus ALS herbicide) were prepared by adding weighed amounts or aliquots of the ALS herbicides to the stock solutions of Compound A or Compound B to form 12-mL spray solutions in two- or three-way combinations.
(§6) The spray solutions were applied to the plant material with an overhead Mandel track sprayer equipped with 8002E nozzles calibrated to deliver 187 L/ha over an application area of 0.503 square meters (m^2) at a spray height of 18 inches (43 centimeters (cm)) above the average plant canopy. Control plants were sprayed in the same manner with the solvent blank. All pyridine carboxylate herbicide (component a) application rates are given as “g ae/ha” and all ALS inhibitor (component b) application rates are given as “g ai/ha.”
as §4

[29] = system: barnyard grass (ECHCG, Echinochloa crus-galli); experiment: Greenhouse postemergence herbicidal effect; assay type: in vivo; settings: Penoxsulam 20 g/ha
Text: as §2, §5, §6, §4

[30] = system: small-flower flatsedge (CYPDI, Cyperus difformis); experiment: Greenhouse postemergence herbicidal effect; assay type: in vivo; settings: Penoxsulam 20 g/ha
Text: as §2, §5, §6, §4

Compound: pyroxsulam
- Obs % visual injury ([1]; KCHSC, Pyroxsulam 15 g/ha): 13%
- % visual injury ([1]; Pyroxsulam 10 g/ha): 30%
- % visual injury Obs ([1]; Pyroxsulam 15 g/ha): 55%
- % visual injury Obs [2]: 73%
- % visual injury ([3]; Pyroxsulam 10 g/ha): 0%
- % visual injury Obs ([3]; Pyroxsulam 15 g/ha): 0%
- Obs % visual injury ([3]; TRZAS, Pyroxsulam 15 g/ha): 0%
- % visual injury ([4]; Pyroxsulam 10 g/ha): 99%
- % visual injury Obs ([4]; Pyroxsulam 15 g/ha): 73%
- % visual injury ([5]; Pyroxsulam 10 g/ha): 93%
- % visual injury Obs ([5]; Pyroxsulam 15 g/ha): 94%
- % visual injury [6]: 60%
- % visual injury [7]: 100%
- % visual injury ([8]; Pyroxsulam 10 g/ha): 60%
- % visual injury Obs ([8]; Pyroxsulam 15 g/ha): 53%
- % visual injury [9]: 50%
- % visual injury [10]: 50%
- % visual injury [11]: 90%
- % visual injury [12]: 70%
- % visual injury [13]: 10%
- % visual injury [14]: 100%
- % visual injury Obs [15]: 98%
- % visual injury ([16]; Pyroxsulam 10 g/ha): 99%
- % visual injury Obs ([16]; Pyroxsulam 15 g/ha): 68%
- % visual injury [17]: 5%
- % visual injury [18]: 65%
- % visual injury [19]: 60%
- % visual injury [20]: 70%
- % visual injury ([21]; Pyroxsulam 10 g/ha): 75%
- % visual injury Obs ([21]; Pyroxsulam 15 g/ha): 48%
- % visual injury [22]: 75%
- % visual injury [23]: 85%
- % visual injury [24]: 80%
- % visual injury [25]: 0%
- % visual injury [26]: 0%
- % visual injury ([27]; Pyroxsulam 10 g/ha): 0%
- % visual injury Obs ([27]; Pyroxsulam 15 g/ha): 0%

Compound: COc1cnc(OC)n2nc(NS(=O)(=O)c3c(OCC(F)F)cccc3C(F)(F)F)nc12 [Penoxsulam, penoxsulam]
- % visual injury Obs [28]: 32%
- % visual injury Obs [29]: 60%
- % visual injury Obs [30]: 17%
